Each structure is given as a SMILES string.

This assay in a line: Single-channel patch clamp recordings, inside-out, on giant multilamellar vesicles. To be noted: 10 μM; for single channel conductance with different ions: Na+ and NMDG+ compared with K+; for single channel activity with different ions: NaCl or NMDG-Cl; for NPO / Translocation rate: 100 mV. The assay is classed as biochemical. Here is the method: The liposome preparation was based on protocols employed by Jiang et al., Activation of the archaeal ion channel MthK is exquisitely regulated by temperature, Elife 2020, 9, to reconstitute bacterial ion channels in proteoliposomes (giant multilamellar vesicles; GMLV). The method is adapted to produce plain liposomes. A total of 25 mg of asolectin from soybean (Avanti) was dissolved in 1 mL of chloroform, dried under argon, and kept overnight under vacuum. The dried lipids were resuspended using bath sonication in a resuspension solution (250 mM KCl, 30 mM HEPES, 0.1 mM CaCl2, pH adjusted at 7.6 with KOH) to a final concentration of 15 mg/mL and stored in 30 μL aliquots at −80° C. Aliquots were thawed and placed on a clean glass slide and dried in a desiccator under vacuum at room temperature. The lipids were then rehydrated with 50 μL resuspension solution for more than 2 h to yield the GMLVs.
Direct detection of electrophysiological activity in biological membranes is the gold standard for any putative ion channel. The 6-O-10 and 6-A-10 compounds were tested for ion channel activity by using the patch clamp technique in the inside-out configuration on giant multilamellar vesicles (GMLV) of asolectin.
Single-channel recordings were obtained by patch-clamping GMLV. After seal formation, patches were excised to obtain the inside-out configuration, and then the pipette solution and the bath solution were assumed to be “external” and “internal” solutions, respectively. Pipettes of borosilicate capillary glass 2-000-100 (Drummond Scientific Company) were pulled in a horizontal pipette puller P-97 (Sutter Instrument). Pipette resistance was 5-10 MΩ in any of the solutions tested. Data were acquired with an Axopatch 200A (Axon Instruments) amplifier. Current signals were sampled with a 16-bit A/D converter Axon Digi-data 1550B (Axon Instruments) at a sampling rate of 100 kHz and low-pass filtered at 10 kHz. Data was acquired using Clampex 10.7 (Molecular Devices) acquisition software and analysed with Clampfit 10.7 software (Axon Instruments) and Origin. The temperature in the room was approximately 21° C.
For gap-free experiments, symmetrical (same solution in pipette and bath) KCl solution (200 mM KCl, 30 mM HEPES, pH adjusted to 7.4 with KOH), NaCl solution (200 mM NaCl, 30 mM HEPES, pH adjusted to 7.4 with NaOH) or NMDG-Cl solution (200 mM NMDG, 30 mM HEPES, pH adjusted to 7.4 with HCl) were used for both the internal and external solutions. All the traces were recorded at 100 mV for 5 minutes.
FIGS. 12-14 show single channel activity elicited by 10 μM 6-O-10 in the presence of symmetrical KCl, NaCl and NMDG-Cl solutions, respectively. FIGS. 15-17 show single channel activity elicited by 10 μM 6-A-10 in the presence of symmetrical KCl, NaCl and NMDG-Cl solutions, respectively. Histograms for a total recording time of 900 s are included below every record.
Ion channel activity was measured in the presence of symmetrical 200 mM KCl, NaCl or NMDG-Cl at a concentration of 10 μM for each compound. Three different records of 300 s each were analyzed for every condition shown in (FIGS. 12-17).
To estimate the relative permeabilities of various ions, the product of number of channels (N) and open probability (Po) and the conductance from the amplitude histograms must be taken into consideration (Table 1). Unlike measurements from single ion channels, the present analysis is not constrained to recordings from patches that contain single functional channels. Thus, the possibility that the supramolecular assembly of synthetic channels is dynamic, and that new channels form during recordings with different oligomerization states cannot be ruled out. The only parameter that can be controlled is the concentration of the compounds in solution. All measurements reported here were obtained at 10 μM solution concentration. […]
(The patch-clamp technique gives a direct electrical read-out from membranes.)

Consider `CCCCCCCCCCc1ccc2c(c1)OCCOCCOCCOCCOCCO2` [Compound 6-A-10, 18-decyl-2,3,5,6,8,9,11,12,14,15-decahydrobenzo[b][1,4,7,10,13,16]hexaoxacyclooctadecine], for which the “efficiency of K+ transport compared to 6-O-10” value is “an order of magnitude less efficient” and the “single channel conductance with different ions” value is listed as “very similar with the different ions”. Where the note is “symmetrical 200 mM KCl”, the “single channel activity with different ions” value was “does not vary significantly”, the NPO came out at 0.18 ± 0.02 and the Translocation rate is reported as 3.2 ± 0.3 10^6/sec. Where the note is “symmetrical 200 mM NMDG-Cl”, the NPO is on record as 0.19 ± 0.12 and the Translocation rate is on record as 5.0 ± 1.9 10^6/sec. For the setting “symmetrical 200 mM NaCl”, the NPO came out at 0.16 ± 0.02 and the Translocation rate is listed as 4.5 ± 0.7 10^6/sec.
On to `CCCCCCCCCC(=O)c1ccc2c(c1)OCCOCCOCCOCCOCCO2` [Compound 6-O-10, 1-(2,3,5,6,8,9,11,12,14,15-decahydrobenzo[b][1,4,7,10,13,16]hexaoxacyclooctadecin-18-yl)decan-1-one], for which the “single channel conductance with different ions” value was “only half that observed in the presence of K^+”. Further, for the setting “from translocation rates”, the “efficiency of K+ permeation relative to NMDG+” value came out at 7 fold and the “efficiency of K+ permeation relative to Na+” value was found to be 3.5 fold. Besides, where the note is “symmetrical 200 mM KCl”, the “single channel activity with different ions” value is “highest in the presence of K^+ and Na^+ as compared to NMDG^+”; the NPO was determined as 0.58 ± 0.16; the Translocation rate is on record as 43.4 ± 5.8 10^6/sec. Also, for the setting “symmetrical 200 mM NMDG-Cl”, the NPO is 0.25 ± 0.13 and the Translocation rate is recorded as 7.1 ± 3.4 10^6/sec. For the same compound, for the setting “symmetrical 200 mM NaCl”, the NPO was 0.56 ± 0.10 and the Translocation rate was 11.3 ± 1.1 10^6/sec.

The record behind these values is US20230060873A1, “COMPOUNDS AND METHODS FOR FORMING ION CHANNELS IN BIOLOGICAL MEMBRANES” (Washington University, priority 2021, published 2023).
